“Also recorded” adds a separate entry of the source. Read-outs that look alike come from different tables or passages of the source.
How the values were obtained:
[1] = Acute toxicity in mice (Example 9); conditions: mouse, in vivo, mice (base)
[2] = system: isolated rabbit heart; experiment: Effect on isolated heart, Langendorff preparation (Example 5d)
Protocol: The effect of the compound of the present invention was also studied on isolated rabbit heart (Langendorff preparation) the method used as described by Anden et al. (Acta Pharmacol. et Toxicol., 21 (1964) page 247). In this procedure, the isolated heart is mounted in a Krebs solution and the test compound is injected into it. Measurements are continuously recorded of the rate and force of contraction.
The tests using epinephrine establish a standard of comparison to evaluate subsequent test compounds in the same preparation.

[3] = Toxicity study in mice (Example 18); format: in vivo; conditions: mouse, in vivo, mice (NMRI, male), 24 hours, read-out: LD 50 + Standard error
Protocol: The toxicity was studied in mice (NMRI, male, 18-28 g) 24 hours after i.v. and oral administration. The animals were observed during five days. No further deaths occurred.

[4] = system: bronchial muscle and heart
Source text: (§1) [This procedure is more fully described below in Example 5 (b)].

[5] = system: cardioaccelerating effect; conditions: in vivo
Source text: as §1

[6] = system: spirally cut trachea from the guinea pig; experiment: Bronchospasmolytic effect in vitro (Example 5a), spirally cut trachea; conditions: at ED50; pilocarpine contracted; racemic terbutaline
Protocol: Pharmacol. Exp. Ther. 90 (1947) page 104] and later modified by Constantine [J. Pharm. Pharmacol. 17 (1965) page 384]. In this test, guinea pigs are stunned with a blow on the head and bled to death. The trachea is dissected out, cut spirally and mounted in an organ bath (25 ml) in Krebs solution continuously aerated with oxygen (95%) and carbon dioxide (5%). […] The tension of the preparation is measured and is usually about 2 gm. initially. Dose response curves for epinephrine and each of the test compounds are then evaluated on the same muscle preparation.

[7] = system: histamine induced bronchoconstriction; experiment: Bronchospasmolytic effect in vivo, Konzett and Rossler (Example 5b); design: species or system guinea pig; conditions: intravenous; histamine-induced bronchospasm; FIG. 1
Protocol: Orciprenaline and terbutaline were also tested in vivo according to the method described by Konzett and Rossler [Arch. Exp. Path. Pharmak. 195 (1940) page 71]. In the method of Konzett and Rossler, the animal is ventilated with a constant volume of air. When a certain pressure has been reached in the lung, the volume of air which is in excess of the pulmonary capacity will escape through the valve. This surplus of air is recorded. The testing compounds in the Konzett and Rossler method, bronchial contraction is provoked by administration of histamine. The histamine reduced the capacity of the airways, and the measured overflow increases. In order to see to what extent a test compound counteracts the histamine-induced bronchospasm, the animal is first given an injection of the test compound which is followed 3 minutes later by exposure to histamine.

[8] = system: right auricle from the guinea pig; experiment: Dual preparation test in vitro, effect on auricle (Example 5c); conditions: slow infusion, FIGS. 2-4
Source text: as §1
(§2) FIG. 2 illustrates the effect of epinephrine (EPE) and terbutaline on spirally cut trachea and right auricle from the guinea pig. Both preparations are dissected out from the same animal and run under identical experimental conditions;
(§3) Both preparations are dissected out from the same animal, and run under identical experimental conditions;
(§4) Both preparations are dissected out from the same animal and run under identical experimental conditions;
(§5) The relation between the heart stimulatory effect and bronchodilator effect was studied in vitro on auricle-trachea-preparation from the guinea pig in order to compare the effect on the heart and the effect on the bronchial muscle under identical experimental conditions. Both spontaneously bearing auricle and spirally-cut trachea were placed in the same bath in Krebs solution. Both preparations were taken from the same animal.
(§6) The compound to be tested was slowly infused into the bathing solution and the tension was measured for each of the auricle and trachael preparations.
(§7) In carrying out this dual preparation test, epinephrine was used as a reference. […] Infusion of epinephrine was made over a period of ten minutes. After washing and recovery, the test solution was infused in the same manner and the effect of the test compound was compared with the effect of epinephrine.
Referring more specifically to FIG. 2, the upper portion of each chart thereof represents the tension continuously recorded of the auricle preparation (shaded area 1 for the effect of epinephrine on the auricle, ref. no. 2 for the effect of terbutaline infused at a rate of 0.2 μg/min on the auricle, and ref. no. 3 for the effect of terbutaline infused at a rate of 0.375μg/min on the auricle).

[9] = system: asthmatic patients; experiment: Clinical trials, arterial oxygen tension in asthmatic patients; format: in vivo, human; conditions: a number of clinical trials
Source text: Because stimulation of the cardiovascular system is thought to be a cause of the adverse effects of many of the prior art compounds on blood oxygen pressures, it is expected that the compounds of the present invention will be less likely to lead to a fall in blood oxygen pressure then compounds such as epinephrine or isoprenaline. The compounds of the present invention have the added advantage of improved longevity of action over all of the compounds described above. […] This improvement has been observed in a number of clinical trials.

[10] = system: spirally cut trachea from the guinea pig; experiment: Dual preparation test in vitro, effect on trachea (Example 5c); conditions: slow infusion; 0.375 μg/min where stated; FIGS. 2-4
Source text: as §1, §2, §3, §4, §5, §6, §7

[11] = system: sphincter of Oddi (choledochoduodenal sphincter); experiment: Effect on sphincter of Oddi (Example 5e); format: in vivo, cat
Protocol: The effect of terbutaline on the choledochoduodenal sphincter of young, healthy cats was studied. Young animals weighing at least 2.0 kg were used. After being deprived of food but not water for 24 hours, they were anesthetized with pentobarbitol (40 mg/kg i.p.). The terminal portion of a common bile duct was isolated and cannulated toward the duodenum. The hepatic part of the bile duct was drained to prevent distention. The pressure was continuously recorded by the open tip technique. Details of the experimental set up have been published by Liedberg and Halabi [Acta. Chir. Scand. 136 (1970) page 208.] Heart rate was recorded on all experiments and blood pressure by arterial cannulation in some.
Referring to the upper curve of FIGS. 7 and 8, the heart rate is continuously recorded. Concurrent records are made in the middle curve and lower curve of the pressures measured respectively in the common bile duct and in the lower duodenum.
As a control in this test, the animal was also treated with 0.5 international units per kg of cholecystokinin (CCK).
In a second test of the effect of terbutaline and isoprenaline on the sphincter (see FIG. 8), the duodenal motility was measured without being affected by CCK.

[12] = system: bronchoconstriction by histamine aerosol; experiment: Protecting effect against histamine aerosol in guinea pigs (Example 15); format: in vivo, guinea pig; conditions: Cavia porcellus, read-out: ED50 (protecting 50 percent of the animals for more than 4 minutes)
Source text: Male guinea pigs (200--300 g) were used. Bronchoconstriction was produced by letting the animals inhale a histamine aerosol.

[13] = anesthetized cats, concurrent with sphincter effect

Q: With `CC(C)(C)NCC(O)c1cc(O)cc(O)c1` (racemic) [terbutaline, 1-(3',5'-dihydroxyphenyl)-2-(t-butylamino)-ethanol] as the compound, how does the LD50 ([1]; iv) read?
A: The LD50 was 47 mg/kg.

Q: And the LD50 ([1]; sc)?
A: The LD50 was 240 mg/kg.

Q: And the LD50 ([1]; oral)?
A: Its LD50 is 3200 mg/kg.

Q: And the “effect on isolated heart relative to epinephrine” value ([2]; cardiac/cardioaccelerating effect, FIGS. 5, 6)?
A: Its value is “about one-fiftieth”.

Q: What about the “effect on rate and force of isolated heart” value ([2]; injection, FIG. 5) of the same compound?
A: Its value is “weak”.

Q: What about the LD50 at 24 h ([3]; iv) of the same compound?
A: The LD50 at 24 h was 52 ± 3 mg/kg.

Q: And the LD50 at 24 h ([3]; po)?
A: Its LD50 at 24 h is 3200 mg/kg.

Q: And the “duration of effect versus orciprenaline” value [4]?
A: The value was “longer than that of orciprenaline”.

Q: What about the “bronchodilator potency versus orciprenaline” value ([4]; in vitro and in vivo) of the same compound?
A: The value was “more potent bronchodilator”.

Q: What about the cardioaccelerating effect [5] of the same compound?
A: Its cardioaccelerating effect is “weak cardioaccelerating effect”.

Q: What about the “relaxation of trachea, activity relative to orciprenaline” value [6] of the same compound?
A: Its value is “about two”.

Q: And the “relaxation of trachea, potency relative to (-)-epinephrine” value [6]?
A: The value was “slightly less potent than (-)-epinephrine”.

Q: And the “bronchospasmolytic effect relative to orciprenaline” value [7]?
A: Its value is “twice”.

Q: What about the “cardiac stimulation in relation to bronchodilator effect” value ([8]; both preparations in same bath) of the same compound?
A: Its value is “bronchodilation was obtained without any effect on the heart muscle preparation”.

Q: What about the “effect on auricle (tension)” value ([8]; 0.375 μg/min where stated) of the same compound?
A: Its value is “little observable effect on the auricle”.

Q: And the arterial oxygen tension [9]?
A: The arterial oxygen tension was “improved arteriel oxygen tension in asthmatic patients”.

Q: What about the “effect on trachea (relaxation)” value [10] of the same compound?
A: The value was “nearly comparable to that of epinephrine infused at the same rate”.

Q: What about the “number of cats responding (the other five of 25)” value ([11]; 5-10 μg/kg) of the same compound?
A: Its value is “five”.

Q: What about the “duodenal pressure / motility” value [11, 13] of the same compound?
A: The value was “only slightly affects; also recorded: minimum effects”.

Q: And the heart rate [11, 13]?
A: Its heart rate is “only slightly affects the heart rate; also recorded: minimum effects on heart rate”.

Q: What about the “common bile duct pressure / sphincter relaxation” value ([11]; anesthetized cats, i.v., 1 μg/kg terbutaline in FIG. 7, FIG. 8) of the same compound?
A: The value was “substantially reduces the common bile duct pressures; also recorded: relaxed the sphincter”.

Q: What about the “number of cats responding (of 25)” value ([11]; dose range 0.5-4.0 μg/kg) of the same compound?
A: The value was 20 cats.

Q: What about the ED50 ([12]; 0.5 h, oral, 30 minutes before histamine) of the same compound?
A: Its ED50 is 0.4 mg/kg.

Q: What about the ED50 ([12]; ip, 0.25 h, i.p., 15 minutes before histamine) of the same compound?
A: Its ED50 is 0.15 mg/kg.

From patent US3937838A, “Orally active bronchospasmolytic compounds and their preparation” (priority 1966, dated 1976)
